Measured values: US11318157B2, “6-6 bicyclic aromatic ring substituted nucleoside analogues for use as PRMT5 inhibitors” (Janssen Pharmaceutica NV, priority 2015, dated 2022)
Read-outs that look alike come from different tables or passages of the source.

Assays:
PRMT5-MEP50 enzyme [1] = target: T1, PRMT5-MEP50 enzyme (Homo sapiens, UniProt O14744); test: In vitro assay 1b: high throughput mass spectrometer assay of SAH formation, 1.25 nM enzyme, 120 min; type: biochemical; conditions: averaged values; PRMT5-MEP50, 1.25 nM enzyme, 120 min; read-out: pIC50 Assay 1b (converted)
T1 construct: One virus expresses full length human PRMT5 with Flag-tag at N-terminus; Flag (N); purchased Charles River (Argenta); host or cells: insect cells (Sf9), baculovirus co-infection
T1 sequence (O14744 whole entry): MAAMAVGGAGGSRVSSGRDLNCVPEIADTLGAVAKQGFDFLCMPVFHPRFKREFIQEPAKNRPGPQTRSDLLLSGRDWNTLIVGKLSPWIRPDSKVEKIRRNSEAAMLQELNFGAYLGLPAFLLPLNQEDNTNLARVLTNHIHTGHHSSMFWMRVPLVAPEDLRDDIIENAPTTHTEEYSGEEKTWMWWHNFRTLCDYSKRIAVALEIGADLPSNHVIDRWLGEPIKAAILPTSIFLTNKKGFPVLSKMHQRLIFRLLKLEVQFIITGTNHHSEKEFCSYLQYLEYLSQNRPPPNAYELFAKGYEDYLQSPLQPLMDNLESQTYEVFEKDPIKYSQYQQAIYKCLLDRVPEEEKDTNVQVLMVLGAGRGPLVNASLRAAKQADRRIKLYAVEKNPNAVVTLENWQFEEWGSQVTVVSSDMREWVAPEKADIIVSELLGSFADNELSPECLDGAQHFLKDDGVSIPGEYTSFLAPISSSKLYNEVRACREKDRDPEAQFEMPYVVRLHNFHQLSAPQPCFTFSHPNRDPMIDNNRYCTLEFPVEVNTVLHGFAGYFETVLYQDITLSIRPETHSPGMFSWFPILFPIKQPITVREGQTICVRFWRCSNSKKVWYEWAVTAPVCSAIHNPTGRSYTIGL
T1 sequence (Q9BQA1 whole entry partner): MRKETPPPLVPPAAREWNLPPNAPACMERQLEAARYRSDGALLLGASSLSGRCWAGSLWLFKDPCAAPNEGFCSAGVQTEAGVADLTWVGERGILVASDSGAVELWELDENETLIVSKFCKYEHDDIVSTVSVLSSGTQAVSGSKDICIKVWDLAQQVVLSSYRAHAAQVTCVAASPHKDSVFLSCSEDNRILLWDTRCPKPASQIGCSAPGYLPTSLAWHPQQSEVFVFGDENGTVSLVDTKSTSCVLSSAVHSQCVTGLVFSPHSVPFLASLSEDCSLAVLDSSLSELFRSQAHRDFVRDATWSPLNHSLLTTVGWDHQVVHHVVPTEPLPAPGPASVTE
Excerpt: (§1) Experimental Procedures In Vitro Assay (Assay 1a and 1b)
(§2) PRMT5-MEP50 enzyme was purchased from Charles River (Argenta). The enzyme complex was produced in insect cells (Sf9) infected simultaneously with two baculoviruses. One virus expresses full length human PRMT5 with Flag-tag at N-terminus, the second virus expresses full length MEP50 with His6-TEV cleavage at N-terminus. The protein was affinity purified using anti-Flag (M2) beads eluted with 3×FLAG peptide, followed by His-Select eluted with 0.5M imidazole. Eluted protein was then dialysed against tris-buffered saline (TBS) (pH 8.0) containing 20% glycerol and 3 mM dithiothreitol (DTT).
(§3) Full-length untagged human recombinant histone H2A (residues 1-130, Genbank Accession #NM_021052 MW=14.1 kDa) expressed in E. coli was purchased from Reaction Biology Corporation, Cat #HMT-11-146. Reagents used for making reaction buffer or stopping reaction were purchased including Tris base (Sigma Cat #T-1503), NaCl (Sigma Cat #RGF-3270), MgCl2 (Sigma Cat #M0250), DTTI (Invitrogen Cat #15508-013) and Formic Acid (Riedel deHaen, Cat #33015)
(§4) High Throughput Mass Spectrometer Assay
(§5) PRMT5 catalyzes the sequential methylations of the terminal nitrogen atoms on the guanidine groups of arginine residues within proteins using co-substrate S-adenosyl-L-methionine (AdoMet, SAM), forming mono-methyl (MMA), symmetric-dimethyl arginine (sDMA) and S-adenosyl-L-homocysteine (AdoHcy, SAH). The enzyme activity was determined by following the product SAH formation using high throughput mass spectrometry (Agilent Rapidfire 300 System coupled to a Sciex 4000 series QTrap® triple-quad MS/MS). The reaction buffer was 20 mM Tris-HCl, pH 8.5, 50 mM NaCl, 5 mM MgCl2 and 1 mM DTT. The reaction activity was stopped using 1% formic acid (final concentration).
(§6) The IC50 Studies were performed using eleven point dosing series made for each compound by serially diluted 1:2 in dimethyl sulfoxide (DMSO), with point 12 being a DMSO control. Compounds were first spotted to plates, and followed by addition of 2 μM SAM and 0.6 μM H2A (histone H2A) solution mixture. The same volume of enzyme solution was added to initiate the enzymatic reactions. The final concentrations of the reaction are at 1 μM SAM, 0.3 μM H2A and 10 nM enzyme (assay 1a) or 1.25 nM enzyme (assay 1b). The reaction was incubated at 30° C. for 60 minutes (min) when 10 nM enzyme was used and for 120 min when 1.25 nM enzyme was used. Subsequently, the reaction was quenched by addition of formic acid to a final concentration of 1%. The inhibitions of SAH formation in the presence of compounds were calculated as a percentage of the control relative to the uninhibited reaction as a function of inhibitor concentration. The data were fit as follows: Y=Bottom+(Top−Bottom)/(1+10^((log IC50−X)*h))
(§7) where IC50 is the inhibitor concentration (same unit as X) at 50% inhibition and h is the Hill slope. Y is percent of inhibition, X is log of compound concentration. Bottom and Top are the plateaus in same units as Y.

[2] = system: nuclear symmetric Arginine dimethylation in A549 cells; test: PD assay (assay 2): inhibition of nuclear symmetric Arginine dimethylation (SYM10 immunohistochemistry), 48 h; type: cell-based; conditions: Homo sapiens
Protocol: Experimental Procedure PD Assay (Assay 2)
A549 cells (ATCC, Cat #CCL-185) were cultured in Dulbecco's Modified Eagle's Medium (DMEM) (Sigma, Cat #D5796), supplemented with 10% Fetal Calf Serum (FCS) (HyClone™, Cat #SV30160.03), 100 mM Sodium Pyruvate (Sigma, Cat #S8636), 200 mM L-Glutamine (Sigma, Cat #G7513) and 50 mg/mL gentamycin (Gibco, Cat #15750-037).
Reagents used for buffers were purchased: Dulbecco's phosphate buffered saline (DPBS) without Ca/Mg (Sigma, Cat #D8537), phosphate buffered saline (PBS) 10× (Roche, Cat #11 666 789 001), Formalin solution 10% (Sigma, HT50-1-128-4L), Methanol 100% (Sigma, Cat #32213-2.5L), Triton X-100 (Acros, Cat #215680010), Bovine Serum Albumin (BSA) (Sigma, Cat #A2153), Alexa fluor 488 goat anti-rabbit antibody (Life Technologies, Cat #A11034), HCS CellMask Deep Red Stain (Life Technologies, Cat #H32721), Hoechst Stain (Life Technologies, Cat #33258), Anti-dimethyl-Arginine, sym (SYM10) antibody (Millipore, 07-412).
Immunohistochemistry Procedure
Cells were plated at 400 cells/40 μL/well in 384 well black μplates clear bottom (Perkin Elmer) and overnight incubated at 37° C., 5% CO2. […] 80 nL of the respective dilution of the compounds was added using the Labcyte POD 810 (Labcyte) reaching a final DMSO concentration of 0.2% in cell culture. After an incubation period of 48 h at 37° C. and 5% CO2, cells were fixed in 10% formalin solution for 15 min at room temperature and 20 min in ice-cold methanol, after which they were washed 3× in DPBS. Subsequently, the cells were blocked for 1 h in blocking buffer (PBS+1% BSA and 0.5% Triton X-100) and incubated overnight at 4° C. with the SYM10 antibody diluted 1/2000 in blocking buffer. The cells were washed 3× with washing buffer (PBS+0.1% Triton X-100) and incubated with the Alexa fluor 488 goat anti-rabbit antibody diluted 1/200 in blocking buffer for 1 h at room temperature. Subsequently, they were washed 3× with washing buffer and incubated for 30 min at room temperature with PBS containing a 1/5000 dilution of Hoechst Stain and a 1/5000 dilution of the HCS CellMask Deep Red Stain. After a final wash with PBS, the plates were imaged using the 10×W lens of the Opera® system (Perkin Elmer Life Sciences) using following settings (values in nm):
In the above equations, the following variable names are used: […]
In the above equations, the following controls were used for normalization: […]
Low control: minimum level of symmetrically dimethylated Arginines (cells treated with reference compound at 10 μM).
High control: maximum level of symmetrically dimethylated Arginines (DMSO treated cells).
IC50 and pIC50 (−log IC50) values were calculated using the appropriate software.
The pIC50 values in the Table below are averaged values (Co. No. means compound number; n.d. means not determined).

PRMT5-MEP50 enzyme [3] = target: T1, PRMT5-MEP50 enzyme; test: In vitro assay 1a: high throughput mass spectrometer assay of SAH formation, 10 nM enzyme, 60 min; type: biochemical; conditions: averaged values, PRMT5-MEP50, 10 nM enzyme, read-out: pIC50 Assay 1a (converted)
Excerpt: as §1, §2, §3, §4, §5, §6, §7

[4] = A549, averaged values, PD assay, A549 cells, symmetric Arginine dimethylation, read-out: pIC50 Assay 2 (converted)

SMILES | IC50 (PRMT5-MEP50 enzyme [1]) | IC50 [2, 4] | IC50 ([2]; A549, read-out: pIC50 Assay 2 (converted)) | IC50 (PRMT5-MEP50 enzyme [3])
CNc1ncnc2c1ccn2[C@@H]1C[C@H](CCc2ccc3ccc(NCC(F)F)nc3c2)[C@@H](O)[C@H]1O [Compound 184] | 2 nM | 63.1 nM |  | 
Nc1ncnc2c1ccn2[C@@H]1C[C@H](OCc2ccc3ccc(NCC4CC4)nc3c2)[C@@H](O)[C@H]1O [Compound 160] | 0.794 nM | 15.8 nM |  | 
Nc1ncnc2c1ccn2[C@@H]1C[C@H](CCc2ccc3ccc(NCC4CC4)nc3c2)[C@@H](O)[C@H]1O [Compound 74] | 0.126 nM |  | 0.398 nM | 
CNc1nc2cc(CC[C@H]3C[C@@H](n4ccc5c(NC)ncnc54)[C@H](O)[C@@H]3O)ccc2cc1F [Compound 203] | > 2510 nM | 6310 nM |  | 
COc1ncnc2c1ccn2[C@@H]1C[C@H](CCc2ccc3cc(C(F)(F)F)c(N)nc3c2)[C@@H](O)[C@H]1O [Compound 200] | 6.31 nM | 1000 nM |  | 
Nc1nc2cc(CC[C@H]3C[C@@H](n4ccc5nccnc54)[C@H](O)[C@@H]3O)ccc2cc1Cl [Compound 250] | 31.6 nM | 200 nM |  | 
CNc1ncnc2c1ccn2[C@@H]1C[C@H](CCc2ccc3ccc(NCC4CC4)nc3c2)[C@@H](O)[C@H]1O [Compound 209] | 0.316 nM | 15.8 nM |  | 
CNc1ccc2ccc(CC[C@H]3C[C@@H](n4ccc5c(NC)ncnc54)[C@H](O)[C@@H]3O)cc2n1 [Compound 178] | 0.794 nM | 10 nM |  | 
CNc1ccc2ccc(OC[C@H]3C[C@@H](n4ccc5c(NC)ncnc54)[C@H](O)[C@@H]3O)cc2n1 [Compound 226] | 6.31 nM | 100 nM |  | 
Nc1nc2cc(CC[C@H]3C[C@@H](n4ccc5c(N)ncnc54)[C@H](O)[C@@H]3O)ccc2cc1C(F)(F)F [Compound 154] | 0.316 nM | 2.51 nM |  | 
CNc1ncnc2c1ccn2[C@@H]1C[C@H](CCc2ccc3cc(C(F)(F)F)c(N)nc3c2)[C@@H](O)[C@H]1O [Compound 201] | 1.58 nM | 39.8 nM |  | 
Nc1ncnc2c1ccn2[C@@H]1C[C@H](CCc2ccc3ccc(Nc4ccc(Cl)cc4)nc3c2)[C@@H](O)[C@H]1O [Compound 161] | 1.58 nM | 39.8 nM |  | 
CC(C)Nc1ncnc2c1ccn2[C@@H]1C[C@H](CCc2ccc3cc(Cl)c(N)nc3c2)[C@@H](O)[C@H]1O [Compound 196] | 2 nM | 100 nM |  | 
COc1ncnc2c1ccn2[C@@H]1C[C@H](CCc2ccc3ccc(NCC(F)(F)F)nc3c2)[C@@H](O)[C@H]1O [Compound 188] | 39.8 nM | 631 nM |  | 
Nc1nc2cc(CC[C@H]3C[C@@H](n4ccc5cncnc54)[C@H](O)[C@@H]3O)ccc2cc1Cl [Compound 242] | 1 nM | < 1.17 nM |  | 
COc1ncnc2c1ccn2[C@@H]1C[C@H](CCc2ccc3cc(F)c(N)nc3c2)[C@@H](O)[C@H]1O [Compound 204] | 3.98 nM | 63.1 nM |  | 

SMILES | IC50 (PRMT5-MEP50 enzyme [1]) | IC50 [2, 4] | IC50 ([2]; A549, read-out: pIC50 Assay 2 (converted)) | IC50 (PRMT5-MEP50 enzyme [3])
Nc1nc2cc(OC[C@H]3C[C@@H](n4ccc5c(N)ncnc54)[C@H](O)[C@@H]3O)ccc2cc1Cl [Compound 223] | 0.2 nM | 1.26 nM |  | 
COc1ncnc2c1ccn2[C@@H]1C[C@H](CCc2ccc3ccc(NCC4CC4)nc3c2)[C@@H](O)[C@H]1O [Compound 210] | 2.51 nM | 126 nM |  | 
CNc1ncnc2c1ccn2[C@@H]1C[C@H](CCc2ccc3ccc(NC4CCC4)nc3c2)[C@@H](O)[C@H]1O [Compound 183] | 0.501 nM | 6.31 nM |  | 
COc1ncnc2c1ccn2[C@@H]1O[C@H](CCc2ccc3cc(Cl)c(N)nc3c2)[C@@H](O)[C@H]1O [Compound 199] | 39.8 nM | 251 nM |  | 
Nc1nc2cc(CC[C@H]3C[C@@H](n4ccc5c(N)ncnc54)[C@H](O)[C@@H]3O)ccc2cc1F [Compound 159] | 0.126 nM | < 1.17 nM |  | 
Nc1ncnc2c1ccn2[C@@H]1C[C@H](COc2ccc3cccnc3c2)[C@@H](O)[C@H]1O [Compound 46] | 63.1 nM | 126 nM |  | 
COc1ncnc2c1ccn2[C@@H]1C[C@H](CCc2ccc3ccc(NCC(F)F)nc3c2)[C@@H](O)[C@H]1O [Compound 182] | 6.31 nM | 316 nM |  | 
Nc1nc2cc(CC[C@H]3C[C@@H](n4ccc5cnc(Cl)nc54)[C@H](O)[C@@H]3O)ccc2cc1Cl [Compound 241] | 2.51 nM | < 1.17 nM |  | 
COc1ncnc2c1ccn2[C@@H]1C[C@H](CCc2ccc3ccc(NC4CC4)nc3c2)[C@@H](O)[C@H]1O [Compound 181] | 1.26 nM | 39.8 nM |  | 
CNc1ncnc2c1ccn2[C@@H]1C[C@H](COc2ccc3cc(Br)c(N)nc3c2)[C@@H](O)[C@H]1O [Compound 237] | 1.58 nM | 6.31 nM |  | 
Nc1ncnc2c1ccn2[C@@H]1C[C@H](CCc2ccc3cc(F)c(NCC4CC4)nc3c2)[C@@H](O)[C@H]1O [Compound 155] | 158 nM | 251 nM |  | 
C=Cc1cnc2cc(OC[C@H]3O[C@@H](n4ccc5c(N)ncnc54)[C@H](O)[C@@H]3O)ccc2c1 [Compound 253] |  |  |  | 20 nM
COc1ncnc2c1ccn2[C@@H]1C[C@H](CCc2ccc3cc(Cl)c(N)nc3c2)[C@@H](O)[C@H]1O [Compound 195] | 0.501 nM | 25.1 nM |  | 
Nc1nc2cc(CC[C@H]3O[C@@H](n4ccc5c(N)ncnc54)[C@H](O)[C@@H]3O)ccc2cc1Cl [Compound 158] | 0.126 nM | 3.16 nM |  | 
Nc1ncnc2c1ccn2[C@@H]1C[C@H](CCc2ccc3cc(Br)c(NC4CC4)nc3c2)[C@@H](O)[C@H]1O [Compound 153] | 200 nM | 31.6 nM |  | 
